Among the data in ChEMBL document CHEMBL1157539, “Thousands of chemical starting points for antimalarial lead identification” (Nature, 2010) are XC50 values, retold here.

SMILES strings stand for the structures.

The subject of this experiment is Plasmodium falciparum. Briefly: GSK_TCMDC: Inhibition of Plasmodium falciparum 3D7 in whole erythrocytes, using parasite LDH activity as an index of growth. Type of experiment: functional, organism-based. Particulars: Plasmodium falciparum, 3D7.

Compound `COc1cccc(-c2c(C#N)c(N)nc3c2c(C)nn3-c2ccccc2)c1O` gave an XC50 of 282 nM.
The compound `OC(c1ccc(Cl)cc1)(c1ccc(Cl)cc1)C(c1ccc(Cl)cc1)n1ccnc1` (configuration not stated) yielded an XC50 of 863 nM.
The compound `CCN(CCO)Cc1ccc(-c2ccc(NS(=O)(=O)c3cccc4cccnc34)cc2)cc1` displayed an XC50 of 985 nM.
Next, `CC(=O)Oc1c(C(=O)C2CCC(C(C)(C)C)CC2)c(OC(C)=O)c2ccccc2c1OC(C)=O` (configuration not stated): 268 nM; `CCCCCCNC(=O)C1Cc2c([nH]c3ccccc23)C2(CCN(CCc3ccccc3)CC2)N1` (configuration not stated): 1140 nM; `COc1cccc(OC)c1CN1CCC(N(C)CCCCCCCCCN2CCC(OC(=O)Nc3ccccc3-c3ccccc3)CC2)CC1`: 319 nM.
Next, `Nc1nc(N)c2c(CCc3ccc(Cl)c(Cl)c3)cccc2n1`: 669 nM; `O=C(N[C@@H](CC1CCCCC1)C(=O)NCCN1CCCC1)c1ccc(O)c(-c2cccc(C(F)(F)F)c2)c1`: 760 nM; `CC(Oc1ccc(Cl)cc1)C(=O)Nc1cc(C(F)(F)F)ccc1-n1cncn1` (configuration not stated): 151 nM.
Compound `COc1ccccc1C1CCN(C2CCC(NC(=O)c3cc4cc(C(C)C)ccc4[nH]3)CC2)CC1` (configuration not stated) displayed an XC50 of 850 nM.
Consider `CC(C)C[C@H](NC(=O)c1ccc(OCCN2CCOCC2)cc1)C(=O)NC(/C=N/N1CCCC1=O)C(C)C` (some centres not stated), for which the XC50 amounted to 248 nM.
`COC(=O)c1cc(C(O)CNC(C)CCc2cccc(F)c2)ccc1O` (configuration not stated) showed an XC50 of 1180 nM.
Next, `Nc1nc(N)c2c(ccc3c2ccn3CCCCO)n1`: 117 nM.
`CS(=O)(=O)c1ccc(-c2cnc(N)c(-c3cccc(CO)c3)c2)cc1`: the XC50 turned out to be 939 nM.
Next, `CCC(C)CN1CCCN(c2ccc(NC(=O)c3cccs3)cc2)CC1` (configuration not stated): 802 nM.
Next, `Cc1cccc2nc(-c3cccc(-c4cccc(NC(=O)c5ccc(=O)[nH]n5)c4)c3)[nH]c12`: 789 nM; `COc1ccc2ncc(F)c(CCN3CCC(CNCc4cccc5c4OCO5)CC3)c2n1`: 934 nM.
In turn, `N#CC(c1ccc(F)cc1)c1ccc2c(C(F)(F)F)cc(C(F)(F)F)nc2n1` (configuration not stated) registered an XC50 of 726 nM.
`CN1CCN(Cc2ccc(-c3cc4nccc(Nc5ccc(Oc6ccccc6)cc5)c4cc3Cl)o2)CC1` had an XC50 of 979 nM.
The same measure for `COc1ccccc1-c1cccc(CNC2CCN(CC3Cn4c(=O)ccc5ccc(F)c3c54)CC2)c1` (configuration not stated): 1380 nM; for `O=C(c1cc(-c2cccs2)n[nH]1)N1CCN(S(=O)(=O)c2ccc(Br)cc2)CC1`: 357 nM.
The same measure for `Fc1ccccc1C=NN=c1cc[nH]c2ccccc12`: 894 nM; for `O=C(Nc1cccc(F)c1)c1ccc(C(=O)NC2CCN(CC3CCCCC3)C2)cc1` (configuration not stated): 929 nM; for `CCNCc1cccc(-c2ccc3ccnc(N)c3c2)c1`: 46.9 nM.
Next, `Cc1c(C(=O)Nc2cc(Sc3ccc(F)cc3)cc([N+](=O)[O-])c2)sc2ncn(Cc3cccc(F)c3)c(=O)c12`: 720 nM; `O=C(COc1ccccc1)NC1CCN(c2ccnc3cc(Cl)ccc23)C1` (configuration not stated): 698 nM.
Take `CCCCCCCc1c(C)nc2cccc(OC)c2c1O`: the XC50 was found to be 1130 nM.
The same measure for `COc1cccc(-c2cc(C(F)(F)F)n3ncc(C(=O)Nc4cc(Cl)ccc4O)c3n2)c1`: 203 nM.
As to `O=C(Nc1cccc(CN2CCCN(CC3CCCCC3)CC2)c1)c1ccc(Cl)c(Cl)c1`, the XC50 was found to be 962 nM.
The same measure for `Cc1nc(C)c(-c2ccc(C(=O)c3ccc(Cl)cc3)cc2)c(O)c1Cl`: 535 nM; for `CN(C)CCCn1c(C(=O)OC(c2ccccc2)c2ccccc2)cc2cc(OCc3ccccc3)ccc21`: 201 nM; for `O=C(NCCCCCN1CCC(c2ccc(O)cc2)CC1)c1ccc(-c2ccccc2)cc1`: 929 nM.
Next, `Nc1ccc(-c2nc3cc(C4=N[C@H]5CCCC[C@H]5N4)ccc3o2)cc1[N+](=O)[O-]`: 1120 nM.
With `CC(CN1CCN(C)CC1)C(=O)Nc1cccc(-c2ccc(-c3nc4ccccc4[nH]3)s2)c1` (configuration not stated), the XC50 came to 632 nM.
The same measure for `Cc1cccc2nc(-c3ccc(-c4ccc(CNCCNC(=O)c5ccnn5C)cc4)s3)[nH]c12`: 308 nM; for `Cc1cccc2nc(-c3cccc(-c4ccc(NC(=O)Nc5ccc(Cl)c(Cl)c5)cc4)c3)[nH]c12`: 566 nM.
Next, `CC(=O)Nc1ccc(CN(C)C2CCN(c3cc(NC(=O)c4cccc(C)c4)ccn3)CC2)cc1`: 904 nM.
Next, `COc1ccc(OCC(O)CN(Cc2ccccc2OC)C(=O)Nc2ccc(Br)cc2)cc1` (configuration not stated): 748 nM.
In the case of `O=C(Nc1cccc(-c2csc(-c3nc4ccccc4[nH]3)c2)c1)c1ccoc1`, the XC50 stood at 211 nM.
The same measure for `CS(=O)(=O)Nc1cccc(-c2cnc3[nH]cc(-c4ccc(CCC(=O)O)cc4)c3c2)c1`: 1060 nM.
The same measure for `O=C(NCCc1ccccc1)N(Cc1ccccc1-c1cccc(CNCc2ccc3c(c2)OCO3)c1)C1CCN(Cc2ccccc2)CC1`: 987 nM; for `CCCC1N=C(N)N=C(N)N1c1ccc(CC)cc1` (configuration not stated): 66.9 nM.
The same measure for `Cc1cc(N[C@@H](Cc2ccccc2)C(=O)NC2CCCC2)nc(NCCc2ccc(F)cc2)n1`: 803 nM; for `Cc1cc(NC(=O)Nc2ccc3sccc3c2)c2ccccc2n1`: 530 nM; for `Cc1cc(NC(=O)NCCN2CCC(NC(=O)c3ccc(C(F)(F)F)cc3)CC2)c2ccccc2n1`: 413 nM.
As for `O=C(NCCc1ccccc1)N(Cc1cccc(-c2ccc(CNCCc3ccccc3)cc2)c1)C1CCN(Cc2ccccc2)CC1`, the XC50 came out at 613 nM.
Next, `O=C(Nc1cccc(C(F)(F)F)c1)NC1CCN(c2ccnc3ccccc23)CC1`: 988 nM; `Cc1cccc2nc(-c3cccc(-c4cccc(NC(=O)Nc5ccsc5)c4)c3)[nH]c12`: 170 nM; `O=[N+]([O-])c1ccc2ncnc(Nc3ccc(F)c(Cl)c3)c2c1`: 709 nM.
Next, `Cc1cc(C2CCCCN2C)ccc1-c1ccc(C(=O)N2CCc3cc4c(cc32)C2(CCN(C)CC2)CO4)cc1` (configuration not stated): 791 nM; `COC(=O)Nc1cc(C(F)(F)F)ccc1N1CCC(CNS(=O)(=O)c2ccc(OC)cc2)CC1`: 249 nM.
Next, `CCCNC(=O)Nc1cc2cc(-c3cccc(CN4CCCCC4)c3)ccc2n2c(C)nnc12`: 1110 nM; `Cn1c(N)c(C(=O)CSc2ncc(-c3ccc(F)cc3)n2Cc2ccccc2)c(=O)n(C)c1=O`: 569 nM; `Cc1ccccc1C1CCN(C2CCC(NC(=O)/C=C/c3cc(C(F)(F)F)ccc3F)CC2)CC1` (configuration not stated): 839 nM.
Compound `Fc1ccc(C=NNc2nc3ccccc3[nH]2)cc1` yielded an XC50 of 783 nM.
The same measure for `COc1cc2nc(NCC3CCCCC3)nc(NCc3ccccc3)c2cc1OC`: 142 nM; for `Fc1ccc2[nH]c(-c3cccc(-c4cccc(CNCc5cnn(-c6ccccc6)n5)c4)c3)nc2c1`: 971 nM; for `Cc1ccc(N2CCN(CCCCNC(=O)c3ccc(NC(=O)c4ccc(Cl)cc4)cc3)CC2)c(C)c1`: 764 nM.
The same measure for `N=C(NCCCCC1CCCCC1)c1cccc(C(=N)NCCCCC2CCCCC2)n1`: 395 nM.
The same measure for `O=[N+]([O-])c1cccc(C=NNc2nc(=Nc3ccccc3)[nH]c(=Nc3ccccc3)[nH]2)c1`: 968 nM; for `CN(C)c1ccc(C2c3[nH]cnc3CCN2C(=O)Nc2cccc([N+](=O)[O-])c2)cc1` (configuration not stated): 966 nM.
For the compound `CCC(COCc1ccc(Cl)cc1)N(C)CCN(C)C(CC)COCc1ccc(Cl)cc1` (configuration not stated), the XC50 is 1060 nM.
The same measure for `O=C(Nc1cc(Cl)ccc1O)c1cc(-c2ccccc2O)no1`: 1090 nM; for `O=C(Nc1ccc(C(F)(F)F)cc1)NC1CCN(c2ccnc3ccccc23)CC1`: 185 nM.
`COc1ccc(C[C@@H](C)NC[C@H](O)c2cccc(Cl)c2)cc1F` displayed an XC50 of 867 nM.
Next, `Cc1cc(C2CCN(CCCCNC(=O)c3ccc(NC(=O)c4ccc(Cl)cc4)cc3)CC2)c(C)cc1OCc1cccnc1`: 603 nM; `COc1ccc(NC(=O)Nc2ccc(Nc3nc(C)cc(N(C)C)n3)cc2)cc1`: 454 nM.
Regarding `CNC(=O)CSc1nnc(-c2ccc(C)cc2)c(-c2ccc(C)cc2)n1`, the XC50 was determined as 600 nM.
Next, `O=C(Nc1cccc(CN2CCN(Cc3ccc(O)cc3)CC2)c1)c1cccc(C(F)(F)F)c1`: 1210 nM.
For the compound `CS(=O)(=O)CCNCc1cccc(-c2ccc3c(Nc4cc(O)c(Cl)cc4F)ccnc3c2)c1`, the XC50 was found to be 254 nM.
The same measure for `Cc1cn(CC(=O)Nc2cccc(-c3cccc(-c4nc5cc(C(F)(F)F)ccc5[nH]4)c3)c2)c(=O)[nH]c1=O`: 681 nM.
For `COc1cccc(C(=O)NC(NC(=S)Nc2ccc(OC)cc2[N+](=O)[O-])C(Cl)(Cl)Cl)c1` (configuration not stated), the XC50 was 758 nM.
Next, `COc1ccc(C(=O)Nc2ccc(Cl)cc2C(=O)Nc2ccncc2)cc1`: 822 nM; `COc1ccc2c(NN=Cc3ccccc3F)ccnc2c1`: 213 nM.
`O=C(NCCCCN1CCC2c3cccc(O)c3CCC21)c1ccc(-c2ccccc2)cc1` (configuration not stated) registered an XC50 of 1380 nM.
Next, `CCCCc1cc(NCc2ccncc2)nc(Nc2ccccc2)n1`: 843 nM; `O=C(Nc1ccc(OC2CCN(Cc3ccc(F)cc3)C2)c(Cl)c1)c1ccc(F)cc1` (configuration not stated): 490 nM.
The same measure for `Cc1ccc(S(C)(=O)=O)cc1/C=C/C(=O)O`: 868 nM.
`Cc1ccc(NC(=O)c2nc(N3CCN(c4ccncc4)CC3)ccc2Cl)cc1F` registered an XC50 of 812 nM.
Take `Oc1cccc(CNCCCN(Cc2ccccc2)c2ccccc2)c1`: the XC50 stood at 600 nM.
Next, `Cc1cc2c(NC(=O)NC3CCN(Cc4ccc(Cl)c(Cl)c4)CC3)cccc2cn1`: 681 nM; `Cc1cc(=O)c2cc(-c3ccc(OC(F)(F)F)cc3)ccc2[nH]1`: 476 nM.
Next, `NC1CCN(Cc2cccc(-c3csc(-c4nc5ccccc5[nH]4)c3)c2)C1` (configuration not stated): 892 nM; `CC(C)(C)N1CCC(N(Cc2ccc(-c3ccc(C(F)(F)F)cc3)cc2)C(=O)Cn2c(CCc3cccc(F)c3F)cc(=O)c3ccccc32)CC1`: 789 nM; `Cc1ccc(C(C(=O)Nc2ccc(N3CCNCC3)c(Cl)c2)c2ccccc2)cc1` (configuration not stated): 843 nM.
Next, `CC(=O)Nc1cccc(Nc2nccc(Nc3ccc(Oc4ccccc4)cc3)n2)c1`: 745 nM; `Cc1onc(-c2ccc(Cl)cc2)c1-c1ccnn1S(=O)(=O)c1ccc(Cl)cc1`: 711 nM.
